Experimental data published in patent publication US6562837B1, “Use of tetrahydroisoquinoline compounds for the treatment of septicemia” (Korea Institute of Science & Technology, priority 1998, dated 2003).

Assays:
[1] = Toxicity experiment, 50% lethal dose (LD50); settings: in vivo, ip; intraperitoneally injected
[2] = test system: NO synthesis in macrophages (RAW 264.7 cells); experiment: Suppression of LPS- and IFN-γ-induced NO synthesis in macrophage (nitrite, Griess reagent); assay type: cell-based; settings: 18 hours, control 8, LPS + IFN-γ alone 57
Procedure: In a DMEM medium supplemented with thermally treated 10% fetal calf serum, penicillin (100 U/ml) and streptomycin ([…]), macrophages (RAW 264.7 cells) were cultured to be confluent in a CO2 incubator. After being transferred to a serum-free DMEM medium, the cells were cultured for additional 24 hours and then, further for 18 hours in the presence of LPS (100 ng/ml) and IFN-γ, and either of the compounds of Chemical Formulas 1 and 2 (0, 1, 10, and 100:μM). The amount of the NO synthesized was measured indirectly through the amount of nitrite, an oxidation product of NO. To this end, the nitrite was subjected to color reaction with the Griess reagent (0.1% naphthylethylenediamine dihydrochloride, 1% sulphanilamide, 5% phosphate solution) and its absorbance at 550 nm was measured by a spectrophotometer.

[3] = test system: LPS-caused death; experiment: Preventive effect on LPS-caused death in mice; assay type: in vivo; settings: for survival rate until 48 hours: 10 mg/kg i.p. 30 min before LPS (20 mg/kg i.p.), LPS only about 20%; for deaths up to 30 hours after the LPS injection: 20 mg/kg i.p. 30 min before LPS (20 mg/kg i.p.)
Procedure: When a large quantity of LPS is injected into animals, various diseases, such as DIC, are generated and they are dead of septic shock in a short period of time. In this experiment, LPS (20 mg/kg) was intraperitoneally injected into mice and the number of mice which were alive for 48 hours after the injection, was counted. Also, an examination was made of the influence of test drugs on the survival ratio.
LPS (20 mg/kg) was administered to mice by injection (i.p.), after which the mice alive were countered every 6 hours for 48 hours. 30 min before LPS injection, test drugs were intraperitoneally injected into the mice to examine the preventive effect on the LPS-caused death.

[4] = test system: Rat thoracic aorta; experiment: Relaxation of phenylephrine-contracted isolated rat thoracic aorta; assay type: cell-based
[5] = target: α-receptor; experiment: Binding affinity to α-adrenoceptor, [3H]prazosin, rat cerebral cortical membrane; settings: [3H]prazosin 200 pM, 25° C., 30 min, read-out: Dissociation constant Ki (M) for cerebral α-receptor of rat
Procedure: For this, the cerebral cortex obtained from rats (Sprague-Dawley, 250±20 g; unless particularly mentioned, the same rats were used in the following experiments) was homogeneously mixed with a 20× buffer (50 mM Tris, 5 mM MgSO4, 1 mM EDTA, 1 mM ascorbic acid, pH 7.7) and then, centrifuged three times at 35,000×g for 15 min and the pellet was stored at −70° C. A solution of 5 mg of the pellet in 1 ml of the buffer was incubated, along with [^3H]prazosin (200 pM) and samples, at 25° C. for 30 min followed by adding 10 ml of a buffer (50 mM Tris, pH 7.7) to quench the binding reaction. The resulting solution was filtered through a Whatman GF/C glass microfiber filter which was then shaken for 2 hours while being completely submerged in a scintillation cocktail. The radioactivity was measured using a scintillation counter (Beckman, LS6500)

[6] = test system: LPS-induced DIC and MOF; experiment: Indices for bacterial endotoxin (LPS)-induced DIC and MOF in rats; assay type: in vivo; settings: 10 mg/kg and 50 mg/kg orally, vs control given LPS (20 mg/kg) only; for number of platelets in blood: FIG. 3; for prothrombin time (PT): FIG. 4; for activated partial thromboplastin time (aPTT): FIG. 5; for fibrinogen level in blood: FIG. 6; for FDP level in blood: FIG. 7; for S-GOT level in blood: FIG. 8; for S-GPT level in blood: FIG. 9; for BUN level in blood: FIG. 10
Procedure: Rats (Sprague-Dawley, 250±50 g) were anesthetized with ketamine (250 mg/kg) by injection (i.m.). 30 min later, LPS (20 mg/kg) was infused into the tail vein of the rats over a 3 hour period. Thereafter, blood was harvested from the artery and measured for platelet number, PT, aPTT, fibrinogen level, FDP level, and the levels of S-GOT, S-GPT and BUN. Test drugs were orally administered once a day for two days. One hour after the final administration of the compounds of interest, the rats were anesthetized.
As an anticoagulant, sodium citrate was used. The number of platelets in the blood was measured by use of a platelet counter. Anticoagulant-treated blood was centrifuged at 1,500×g for 10 min and the plasma was obtained for testing.
In order to obtain a prothrombin time (PT), 100 μl of the plasma was added with 50 μl of a thromboplastin reagent (Sigma, U.S.A.) and a clotting time was measured by use of a fibrometer (Becton Dickinson Co., Canada). Before mixing, the plasma and thromboplastin reagent were pre-incubated at 37° C. for 3 min and 5 min, respectively.
For measurement of the aPTT, 100 μl of the plasma was incubated at 37° C. for 3 min and added with 100 μl of an activated partial thromboplastin time reagent (Sigma U.S.A.) and 100 μl of 0.02 M CaCl2 and a clotting time was measured by use of a fibrometer. Before addition, the reagent was pre-incubated at 37° C. for 1 min while CaCl2 was pre-warmed at 37° C.
To determine the fibrinogen level, first, 20 μl of the plasma was mixed with 180 μl of a buffer and incubated at 37° C. for 2 min. To this solution was added 100 μl of a thrombin reagent (Sigma U.S.A.), followed by measuring a clotting time. Then, the fibrinogen level was determined from a calibration curve obtained with a fibrinogen reference.
The FDP level was determined by use of the Thrombo-Wellcotest kit (Murex Biotech Limit, British). To this end, first, each blood sample (non-citrated) was mixed well with a soybean trypsin inhibitor and Bothrops atrox venom and incubated at 37° C. for 30 min. After centrifugation at 1,500×g for 10 min twice, the supernatant serum was diluted with a glycine saline buffer. 50 μl of the diluted serum was mixed with a drop of a latex suspension on a test slide glass and spread uniformly. The slide was placed in a shaker for 2 min and observed for agglutination. The concentration of FDP was determined semi-quantitatively as follows: with 1:0 dilution (−):0 μg/ml, (+):1 μg/ml, (++):2 μg/ml; with 1:1 dilution, (+):3 μg/ml, (++) :4 μg/ml; with 1:2 dilution (+):5 μg/ml, (++):6 μg/ml, etc.
For the assay of S-GOT, S-GPT and BUN, diagnostic kits (Boehringer Mannheim; AST kit for S-GOT, ALT kit for S-GPT, and urea kit for BUN) were used, together with an automatic biochemical analyzer (Hitachi 747), with the help of Green Cross Reference Lab., Korea.
In detail, after oral administration of higenamine or the compounds of Chemical Formulas 1 and 2, LPS (20 mg/kg) was injected into rats over a 3 hour period to cause DIC and MOF. In order to examine the improvement in the indices for DIC and MOF, these test animals were compared with a control which was provided with LPS only.

Structure (SMILES)	LD50 [1]	Concentration of Nitrite ([2]; compound 1 μM + LPS + IFN-γ)	Concentration of Nitrite ([2]; compound 10 μM + LPS + IFN-γ)	Concentration of Nitrite ([2]; compound 100 μM + LPS + IFN-γ)	survival rate until 48 hours [3]	deaths up to 30 hours after the LPS injection [3]	IC50 [4]	Ki [5]	number of platelets in blood [6]	prothrombin time (PT) [6]	activated partial thromboplastin time (aPTT) [6]	fibrinogen level in blood [6]	FDP level in blood [6]	S-GOT level in blood [6]	S-GPT level in blood [6]	BUN level in blood [6]
Oc1cc2c(cc1O)C(Cc1ccc3ccccc3c1)NCC2 (stereo not drawn) [Compound 2, 1-β-naphthylmethyl-6,7-dihydroxy-1,2,3,4-tetrahydroisoquinoline]	439 mg/kg	34 ± 3.1 µM	22 ± 2.8 µM	11 ± 2.0 µM	80%	no mice were dead until 30 hours	2810 nM	1.5e-07 M	increased	shortened	shortened	increased	decreased	reduction	reduction	reduction
Oc1ccc(CC2NCCc3cc(O)c(O)cc32)cc1 (stereo not shown) [Higenamine, reference compound]					80%		1020 nM	1.26e-06 M	increased	shortened	shortened	increased	decreased	reduction	reduction	reduction
Oc1cc2c(cc1O)C(Cc1cccc3ccccc13)NCC2 (stereo not drawn) [Compound 1, 1-α-naphthylmethyl-6,7-dihydroxy-1,2,3,4-tetrahydroisoquinoline]	290 mg/kg	30 ± 2.9 µM	25 ± 3.4 µM	9 ± 3.0 µM	60%	no mice were dead until 30 hours	2750 nM	2.7e-07 M	increased	shortened	shortened	increased	decreased	reduction	reduction	reduction
